Measurements from ChEMBL document CHEMBL1201862, “PubChem BioAssay data set” (2004).
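How tested: cells in 96-well plates exposed to compound for 48 hours at five concentrations. GI50: concentration for 50% inhibition of growth.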 Active and inactive are the calls of the source. Cut-off read from the data, not from the text of the source: active = GI50 up to about 1.1 µM and inactive = higher.

What was measured:
Test in all cases: growth of human tumour cells (NCI), 48 h
[1] = system: DMS-273
[2] = system: RXF 631
[3] = system: XF498
[4] = system: HOP-18
[5] = system: LXFL 529
[6] = system: SR
[7] = system: MDA-MB-231
[8] = system: Hs-578T
[9] = system: 786-0

`O=C(CC1Sc2ccccc2NC1=O)Nc1ccc(Cl)cc1` (centres undefined) was tested, and the GI50 [1] was 83.4 µM (inactive), the GI50 [2] was 83.6 µM (inactive) and the GI50 [3] was > 100 µM (inactive). For the same molecule, the GI50 [4] was 20 µM (inactive), the GI50 [5] was > 100 µM (inactive) and the GI50 [6] was > 100 µM (inactive).

In the case of `CS(=O)(=O)OCCCNCCCOS(C)(=O)=O`, the GI50 [1] is reported as 328 µM (inactive), the GI50 [7] is reported as 1860 µM (inactive) and the GI50 [3] is reported as 938 µM (inactive). For the same molecule, the GI50 [8] was 2090 µM (inactive), the GI50 [4] was 1420 µM (inactive) and the GI50 [9] was 881 µM (inactive). For the same molecule, the GI50 [6] was 148 µM (inactive).

In the case of `CCOC(=O)C1S/C(=N\c2ccc(Cl)cc2Cl)N=C1C` (centres undefined), the GI50 [1] is reported as 61.1 µM (inactive), the GI50 [3] is reported as 39.5 µM (inactive) and the GI50 [4] is reported as > 100 µM (inactive). The GI50 [9] was 53.3 µM (inactive) and the GI50 [5] was 75.2 µM (inactive).

`OCCN1CCN(CCO)Cc2ccccc2OCCOc2ccccc2C1` was tested, and the GI50 [1] was > 100 µM (inactive), the GI50 [2] was > 100 µM (inactive) and the GI50 [9] was > 100 µM (inactive). The GI50 [5] was 64.4 µM (inactive) and the GI50 [6] was > 100 µM (inactive).

With `COC(=O)c1sc(=O)n(-c2ccccc2)c1SCc1ccccc1` the GI50 [1] was > 100 µM (inactive), the GI50 [2] was > 100 µM (inactive) and the GI50 [3] was > 100 µM (inactive). The GI50 [4] was > 100 µM (inactive), the GI50 [9] was > 100 µM (inactive) and the GI50 [5] was > 100 µM (inactive). For the same molecule, the GI50 [6] was > 100 µM (inactive).

`N#CC1C(=O)C(=O)N(c2ccccc2)C1=O` (centres undefined) was tested, and the GI50 [1] was > 100 µM (inactive), the GI50 [2] was > 100 µM (inactive) and the GI50 [3] was > 100 µM (inactive). For the same molecule, the GI50 [4] was > 100 µM (inactive), the GI50 [9] was > 100 µM (inactive) and the GI50 [5] was > 100 µM (inactive).

For `CC1=C(C(=O)NCc2ccccc2)C(c2ccco2)C(C(=O)NCc2ccccc2)=C(C)N1`, the GI50 [1] was 66.8 µM (inactive), the GI50 [3] was > 100 µM (inactive) and the GI50 [4] was > 100 µM (inactive). The GI50 [5] was 42.6 µM (inactive) and the GI50 [6] was > 100 µM (inactive).

For `CC12CC3CC(C1)CC(N=[N+]=[N-])(C3)C2`, the GI50 [1] was > 100 µM (inactive), the GI50 [2] was > 100 µM (inactive) and the GI50 [3] was > 100 µM (inactive). For the same molecule, the GI50 [4] was > 100 µM (inactive), the GI50 [9] was > 100 µM (inactive) and the GI50 [5] was > 100 µM (inactive).

In the case of `CN1Cc2cc3c(cc2-c2ccccc21)OCO3`, the GI50 [1] is reported as > 100 µM (inactive), the GI50 [3] is reported as > 100 µM (inactive) and the GI50 [4] is reported as > 100 µM (inactive). For the same molecule, the GI50 [9] was > 100 µM (inactive), the GI50 [5] was > 100 µM (inactive) and the GI50 [6] was > 100 µM (inactive).

`C/C=C(\C)C(=O)OC1C2C(C)=CC(=O)C(O)C2(C)C2C3(O)OCC24C1OC(=O)C(OC(C)=O)C4C(C)C3O` (centres undefined) was tested, and the GI50 [1] was 0.0375 µM (active), the GI50 [3] was 0.0396 µM (active) and the GI50 [4] was 0.0811 µM (active).

With `CC1(C)N=C(N)N=C(N)N1c1ccc(CCc2ccccc2)cc1` the GI50 [1] was 0.7 µM (active), the GI50 [3] was < 0.01 µM (active) and the GI50 [4] was 45.7 µM (inactive).

In the case of `C=CC1(C)CCC2=C(CCC3C(C)(C(=O)OC)CCCC23C)C1=O` (centres undefined), the GI50 [2] is reported as 16.2 µM (inactive), the GI50 [5] is reported as 18.5 µM (inactive) and the GI50 [6] is reported as 19 µM (inactive).

In the case of `COc1ccc(N(CC(=O)O)S(=O)(=O)c2ccccc2)cc1`, the GI50 [1] is reported as > 100 µM (inactive), the GI50 [2] is reported as > 100 µM (inactive) and the GI50 [3] is reported as > 100 µM (inactive). The GI50 [4] was > 100 µM (inactive), the GI50 [9] was > 100 µM (inactive) and the GI50 [5] was > 100 µM (inactive).

For `Cc1c2ccncc2c(C)c2c1[nH]c1ccccc12` [ELLIPTECINE], the GI50 [1] was 0.378 µM (active), the GI50 [3] was 1.81 µM (inactive) and the GI50 [4] was 1.49 µM (inactive).

In the case of `CC(C)c1oc(=O)cc2c1C(O)C1OC(=O)C3(C)C(O)C4OC4C2(C)C13` (centres undefined) [NAGILACTONE], the GI50 [1] is reported as 0.966 µM (active), the GI50 [3] is reported as 0.703 µM (active) and the GI50 [4] is reported as 3.48 µM (inactive).
